One block for each sequence: values may come before it.
Key:
[1] = biological target: Qa-1^b (Mus musculus, UniProt P06339); type: binding; conditions: competition with biotin-Qdm4C
[2] = tested on: T2 cells expressing Qa-1^b (T237); type: cell-based, human; conditions: for Inhibition of killing of T237 targets by Qa-1^b-Qdm tetramer-positive NK cells: 30 μM peptide overnight and during the 4-h assay, Fig. 6
[3] = tested on: Dk; conditions: cited from earlier work

- Binding affinity for Qa-1 in competition assays compared with Qdm [1]: affinity similar or identical to Qdm
Sequence: AMACRTLLL [Qdm4C]

Sequence: AMAPRTLLL [Qdm]
- Inhibition of lysis of T237 targets by tetramer-negative NK cells [2]: does not inhibit lysis
- Inhibition of killing of T237 targets by Qa-1^b-Qdm tetramer-positive NK cells [2]: markedly inhibit killing

Sequence: KMAPRTLLL [Qdm P1]
- Inhibition of killing of T237 targets by Qa-1^b-Qdm tetramer-positive NK cells [2]: Substantial inhibition

Sequence: RRLGRTLLL [MT(389–397)]
- Binding to Dk [3]: high affinity
